The values that follow come from patent US20250277012A1 (Protagonist Therapeutics, Inc., priority 2021, published 2025).

Starred links: 1 amine or outer side, 2 acyl side, 3 side chain; linkers in the order of their positions; H or OH if unused. Positions of bridges follow the written chain, without caps; N, C: chain ends. Non-standard residues stand in square brackets, D forms with d. Residues, ends and D or L forms follow the SMILES beside them. Groups on a side chain read outwards from the residue. *: point of attachment. X1 = C[N+](C)(CCNC(=O)CCCCCCCCCCCCCCCCC(=O)O)CC(=O)*; Bip = N[C@@H](Cc1ccc(-c2ccccc2)cc1)C(=O)O; C18 diacid = O=C(O)CCCCCCCCCCCCCCCCC(=O)*; Lys(Me3) = C[N+](C)(C)CCCC[C@H](N)C(=O)O; Dip = N[C@H](C(=O)O)C(c1ccccc1)c1ccccc1; γGlu = O=C(O)[C@H](CCC(=O)[*:2])N[*:1]; Palmitoyl = CCCCCCCCCCCCCCCC(=O)*; NMeF = CN[C@@H](Cc1ccccc1)C(=O)O; NMeT = CN[C@H](C(=O)O)[C@@H](C)O; β3hF = N[C@H](CC(=O)O)Cc1ccccc1; dPen = CC(C)(S)[C@@H](N)C(=O)O; NMeK = CN[C@@H](CCCCN)C(=O)O; Pen = CC(C)(S)[C@H](N)C(=O)O; Isovaleryl = CC(C)CC(=O)*; hCys = N[C@@H](CCS)C(=O)O; Dap = NC[C@H](N)C(=O)O; AEEA = NCCOCCOCC(=O)O; Ahx = NCCCCCC(=O)O

The target in one test is T1, ferroportin (Homo sapiens, UniProt Q9NP59).
T1 sequence (Q9NP59 1-571): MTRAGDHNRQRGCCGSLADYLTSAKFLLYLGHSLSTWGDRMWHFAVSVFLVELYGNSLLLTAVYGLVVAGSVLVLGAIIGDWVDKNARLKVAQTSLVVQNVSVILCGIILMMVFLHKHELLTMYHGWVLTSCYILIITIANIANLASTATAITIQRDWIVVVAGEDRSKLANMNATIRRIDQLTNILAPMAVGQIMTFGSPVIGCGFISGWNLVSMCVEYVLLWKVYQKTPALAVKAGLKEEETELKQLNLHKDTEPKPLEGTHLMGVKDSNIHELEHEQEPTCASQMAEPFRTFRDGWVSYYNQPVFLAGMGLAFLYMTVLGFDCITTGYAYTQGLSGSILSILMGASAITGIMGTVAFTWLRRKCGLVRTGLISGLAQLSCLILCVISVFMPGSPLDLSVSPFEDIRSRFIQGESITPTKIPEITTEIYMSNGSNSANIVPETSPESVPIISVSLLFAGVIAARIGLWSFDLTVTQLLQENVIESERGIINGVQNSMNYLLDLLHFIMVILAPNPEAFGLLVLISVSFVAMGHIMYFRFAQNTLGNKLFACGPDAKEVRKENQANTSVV
Briefly: FPN activity assay: ferroportin-GFP internalization/degradation in HEK293 cells. On the set-up: expressed in transfected cells. Particulars: Table 6D; ferroportin-GFP internalization/degradation, at least 18 hours incubation; read-out: FPN IC50. The class given is cell-based. How it is done:
Following internalization, the ferroporin protein is degraded.
A retro inverse peptide is a peptide with a reversed sequence in all D amino acids. An example is that Hy-Glu-Thr-His-NH2 becomes Hy-DHis-DThr-DGlu-NH2. The EC50 of these reference compounds for ferroportin internalization/degradation was determined according to the FPN activity assay described above. These peptides served as control standards.
In the case of `CCCCCCCCCCCCCCCC(=O)NCC[N+](C)(C)CC(=O)NCCCC[C@H](NC(=O)[C@@H]1CSSC[C@H](NC(=O)[C@H](CCC(=O)O)NC(=O)CC(C)C)C(=O)N[C@@H](Cc2c[nH]cn2)C(=O)N[C@@H](C(c2ccccc2)c2ccccc2)C(=O)N1)C(=O)NCCCCC` [compound 124], the DC50 was in the range of 100 to 500 nM.

The same test, now with this note: Table 6E; ferroportin-GFP internalization/degradation, at least 18 hours incubation; read-out: FPN IC50.
On to `COC(=O)CC[C@H](NC(=O)CC(C)C)C(=O)N(C)[C@H](C(=O)N[C@@H](Cc1c[nH]cn1)C(=O)N[C@H](C(=O)N1CCC[C@H]1C(=O)N[C@H]1CSSC[C@@H](C(=O)N(C)[C@@H](CCCCNC(=O)C[N+](C)(C)CCNC(=O)CCCCCCCCCCCCCCCCC(=O)O)C(=O)N(C)[C@@H](Cc2ccccc2)C(N)=O)NC1=O)C(c1ccccc1)c1ccccc1)[C@@H](C)O` [compound 185] (Isovaleryl-E(OMe)[NMeT]H[Dip]PCC[NMeK](X1)[NMeF]-NH2; disulfide 6-7), for which the DC50 was more than 500 nM. Same read-out and setting: as for `CC(C)CC(=O)N[C@@H](CCC(=O)O)C(=O)N[C@H](C(=O)N[C@@H](Cc1c[nH]cn1)C(=O)N[C@H](C(=O)N1CCC[C@H]1C(=O)N[C@H]1CSSC[C@@H](C(=O)N[C@@H](CCCC[N+](C)(C)C)C(=O)N[C@H](C(N)=O)C(c2ccccc2)c2ccccc2)NC1=O)C(c1ccccc1)c1ccccc1)[C@@H](C)O` [compound 141] (Isovaleryl-ETH[Dip]PCC[Lys(Me3)][Dip]-NH2; disulfide 6-7), the figure is 10 to 100 nM.

The test is the same for the next values; noted with them: ferroportin-GFP HEK293 cells, at least 18 hours; read-out: FPN IC50.
Consider `CCCCCCCCCCCCCCCC(=O)NCCCCCC(=O)NCCCC[C@H](NC(=O)[C@@H](NC(=O)[C@@H]1CCSSCC[C@H](N)C(=O)N[C@@H](C(C)C)C(=O)N[C@@H](CCC(=O)O)C(=O)N[C@@H]([C@@H](C)O)C(=O)N[C@@H](Cc2c[nH]cn2)C(=O)N[C@@H](C(c2ccccc2)c2ccccc2)C(=O)N2CCC[C@H]2C(=O)N1)[C@@H](C)CC)C(=O)N[C@H](CC(N)=O)Cc1ccccc1` [Compd 16] (H-[hCys]VETH[Dip]P[hCys]IK([Ahx-Palmitoyl])[β3hF]-NH2; disulfide 1-8), for which the DC50 is more than 500 nM. As to `CCCCCCCCCCCCCCCC(=O)NCCCCCC(=O)NCCCC[C@H](NC(=O)[C@@H](NC(=O)[C@@H]1CSSCC[C@H](NC(C)=O)C(=O)N[C@@H](CCC(=O)O)C(=O)N[C@@H]([C@@H](C)O)C(=O)N[C@@H](Cc2c[nH]cn2)C(=O)N[C@@H](C(c2ccccc2)c2ccccc2)C(=O)N2CCC[C@H]2C(=O)N1)[C@@H](C)CC)C(=O)N[C@H](CC(N)=O)Cc1ccccc1` [Compd 12] (Ac-[hCys]ETH[Dip]PCIK([Ahx-Palmitoyl])[β3hF]-NH2; disulfide 1-7), the DC50 fell in the range of 100 to 500 nM. Consider `CC(C)CC(=O)N[C@@H](CCC(=O)O)C(=O)N[C@H](C(=O)N[C@@H](Cc1c[nH]cn1)C(=O)N[C@H](C(=O)N1CCC[C@H]1C(=O)N[C@H]1CSSC[C@@H](C(=O)N[C@H](CCCCN)C(=O)N[C@H](CC(=O)N[C@@H](CCCCNC(=O)COCCOCCNC(=O)COCCOCCNC(=O)CC[C@H](NC(=O)CCCCCCCCCCCCCCCCC(=O)O)C(=O)O)C(=O)N[C@H](CCCCN)C(N)=O)Cc2ccccc2)NC1=O)C(c1ccccc1)c1ccccc1)[C@@H](C)O` [Compd 28] (Isovaleryl-ETH[Dip]PCC[dK][β3hF]K([AEEA-AEEA-γGlu-C18 diacid])[dK]-NH2; disulfide 6-7), for which the DC50 fell in the range of 100 to 500 nM. Turning to `CCCCCCCCCCCCCCCC(=O)NCCCCCC(=O)NCCCC[C@H](NC(=O)C[C@H](Cc1ccccc1)NC(=O)[C@@H]1CSSC(C)(C)[C@@H](NC(=O)CC(C)C)C(=O)N[C@@H]([C@@H](C)O)C(=O)N[C@@H](Cc2c[nH]cn2)C(=O)N[C@@H](C(c2ccccc2)c2ccccc2)C(=O)N2CCC[C@H]2C(=O)N[C@@H](C)C(=O)N[C@@H]([C@@H](C)CC)C(=O)N1)C(=O)N[C@H](CCCCN)C(N)=O` [compound 103] (Isovaleryl-[dPen]TH[Dip]PAIC[β3hF]K([Ahx-Palmitoyl])[dK]-NH2; disulfide 1-8), the DC50 lay in the range of 100 to 500 nM. Same read-out and setting: as for `CCCCCCCCCCCCCCCC(=O)NCCCCCC(=O)NCCCC[C@H](NC(=O)C[C@H](Cc1ccccc1)NC(=O)[C@@H](CCCCN)NC(=O)[C@@H]1CSSC[C@H](NC(=O)[C@@H]2CCCN2C(=O)[C@@H](NC(=O)[C@H](Cc2c[nH]cn2)NC(=O)[C@@H](NC(=O)[C@H](CCC(=O)O)NC(=O)CC(C)C)[C@@H](C)O)C(c2ccccc2)c2ccccc2)C(=O)N1)C(=O)N[C@H](CCCCN)C(N)=O` [Compd 6] (Isovaleryl-ETH[Dip]PCC[dK][β3hF]K([Ahx-Palmitoyl])[dK]-NH2; disulfide 6-7), the figure is 10 to 100 nM. On to `CCCCCCCCCCCCCCCC(=O)N[C@@H](CCC(=O)NCCCC[C@H](NC(=O)[C@@H](NC(=O)[C@@H]1CSSC[C@H](NC(=O)[C@@H]2CCCN2C(=O)[C@H](Cc2ccccc2)NC(=O)[C@H](Cc2c[nH]cn2)NC(=O)[C@@H](NC(=O)[C@H](CC(=O)O)NC(=O)CC(C)C)[C@@H](C)O)C(=O)N1)[C@@H](C)CC)C(=O)N[C@@H](Cc1ccccc1)C(=O)N[C@@H](CCC(=O)O)C(=O)N1CCC[C@H]1C(=O)N[C@@H](CCCNC(=N)N)C(=O)O)C(=O)O` [Compd 101] (Isovaleryl-DTHFPCCIK([γGlu-Palmitoyl])FEPR-OH; disulfide 6-7), for which the DC50 is 10 to 100 nM.

`CCCCCCCCCCCCCCCC(=O)NCCCCCC(=O)NCCCC[C@H](NC(=O)C[C@H](Cc1ccccc1)NC(=O)[C@@H]1CSSC[C@H](NC(=O)[C@@H]2CCCN2C(=O)[C@@H](NC(=O)[C@H](Cc2c[nH]cn2)NC(=O)[C@@H](NC(=O)[C@H](CCC(=O)O)NC(=O)CC(C)C)[C@@H](C)O)C(c2ccccc2)c2ccccc2)C(=O)N[C@@H]([C@@H](C)CC)C(=O)N1)C(=O)N[C@H](CCCCN)C(N)=O` [Compd 7] (Isovaleryl-ETH[Dip]PCIC[β3hF]K([Ahx-Palmitoyl])[dK]-NH2; disulfide 6-8): the DC50 fell in the range of 10 to 100 nM.

Consider `CCCCCCCCCCCCCCCC(=O)NCCCCCC(=O)NCCCC[C@H](NC(=O)C[C@H](Cc1ccccc1)NC(=O)[C@H]1CSSC[C@H](NC(=O)CC(C)C)C(=O)N[C@@H]([C@@H](C)O)C(=O)N[C@@H](Cc2c[nH]cn2)C(=O)N[C@@H](C(c2ccccc2)c2ccccc2)C(=O)N2CCC[C@H]2C(=O)N[C@@H](C)C(=O)N[C@@H]([C@@H](C)CC)C(=O)N1)C(=O)N[C@H](CCCCN)C(N)=O` [compound 106] (Isovaleryl-CTH[Dip]PAI[dC][β3hF]K([Ahx-Palmitoyl])[dK]-NH2; disulfide 1-8), for which the DC50 lay within 100 to 500 nM.

The same test, now with this note: ferroportin-GFP internalization/degradation, HEK293 cells; Table 6E; read-out: FPN IC50.
Consider `CC(C)CC(=O)N[C@@H](CCC(=O)O)C(=O)N[C@H](C(=O)N[C@@H](Cc1c[nH]cn1)C(=O)N[C@H](C(=O)N1CCC[C@H]1C(=O)N[C@@H]1C(=O)N[C@H](C(=O)N(C)[C@@H](CCCCNC(=O)COCCOCCNC(=O)COCCOCCNC(=O)[C@H](CN)NC(=O)CCCCCCCCCCCCCCCCC(=O)O)C(=O)N[C@H](CC(=O)N[C@H](CCCCN)C(N)=O)Cc2ccccc2)CSSC1(C)C)C(c1ccccc1)c1ccccc1)[C@@H](C)O` [compound 271] (Isovaleryl-ETH[Dip]P[Pen]C[NMeK]([AEEA-AEEA-Dap-C18 diacid])[β3hF][dK]-NH2; disulfide 6-7), for which the DC50 lay within 10 to 100 nM. Take `CC(C)CC(=O)N[C@@H](CCC(=O)O)C(=O)N[C@H](C(=O)N[C@@H](Cc1ccc(-c2ccccc2)cc1)C(=O)N[C@H](C(=O)N1CCC[C@H]1C(=O)N[C@H]1CSSC[C@@H](C(=O)N(C)[C@@H](CCCCNC(=O)COCCOCCNC(=O)COCCOCCNC(=O)[C@H](CN)NC(=O)CCCCCCCCCCCCCCCCC(=O)O)C(=O)N[C@H](CC(=O)N[C@H](CCCCN)C(N)=O)Cc2ccccc2)NC1=O)C(c1ccccc1)c1ccccc1)[C@@H](C)O` [compound 297] (Isovaleryl-ET[Bip][Dip]PCC[NMeK]([AEEA-AEEA-Dap-C18 diacid])[β3hF][dK]-NH2; disulfide 6-7): the DC50 was more than 500 nM.
